Values joined by “and” are separate entries in the source; they are usually repeats but may differ in a detail not shown here. Equal entries are not always repeated.
How the values were obtained:
Test in all cases: In-cell proteome-wide competitive ABPP, HEK293: other DUBs and proteins
[1] = biological target: T1, DUBs and other proteins in HEK293 cells (Homo sapiens, UniProt Q86UV5); conditions: for Log2 reporter intensity values: USP48: competition with ABP 2, DMSO substract (FC), replicates A-B; for Log2 reporter intensity values: USP48, DMSO subtracted
T1 sequence (Q86UV5 1-1035): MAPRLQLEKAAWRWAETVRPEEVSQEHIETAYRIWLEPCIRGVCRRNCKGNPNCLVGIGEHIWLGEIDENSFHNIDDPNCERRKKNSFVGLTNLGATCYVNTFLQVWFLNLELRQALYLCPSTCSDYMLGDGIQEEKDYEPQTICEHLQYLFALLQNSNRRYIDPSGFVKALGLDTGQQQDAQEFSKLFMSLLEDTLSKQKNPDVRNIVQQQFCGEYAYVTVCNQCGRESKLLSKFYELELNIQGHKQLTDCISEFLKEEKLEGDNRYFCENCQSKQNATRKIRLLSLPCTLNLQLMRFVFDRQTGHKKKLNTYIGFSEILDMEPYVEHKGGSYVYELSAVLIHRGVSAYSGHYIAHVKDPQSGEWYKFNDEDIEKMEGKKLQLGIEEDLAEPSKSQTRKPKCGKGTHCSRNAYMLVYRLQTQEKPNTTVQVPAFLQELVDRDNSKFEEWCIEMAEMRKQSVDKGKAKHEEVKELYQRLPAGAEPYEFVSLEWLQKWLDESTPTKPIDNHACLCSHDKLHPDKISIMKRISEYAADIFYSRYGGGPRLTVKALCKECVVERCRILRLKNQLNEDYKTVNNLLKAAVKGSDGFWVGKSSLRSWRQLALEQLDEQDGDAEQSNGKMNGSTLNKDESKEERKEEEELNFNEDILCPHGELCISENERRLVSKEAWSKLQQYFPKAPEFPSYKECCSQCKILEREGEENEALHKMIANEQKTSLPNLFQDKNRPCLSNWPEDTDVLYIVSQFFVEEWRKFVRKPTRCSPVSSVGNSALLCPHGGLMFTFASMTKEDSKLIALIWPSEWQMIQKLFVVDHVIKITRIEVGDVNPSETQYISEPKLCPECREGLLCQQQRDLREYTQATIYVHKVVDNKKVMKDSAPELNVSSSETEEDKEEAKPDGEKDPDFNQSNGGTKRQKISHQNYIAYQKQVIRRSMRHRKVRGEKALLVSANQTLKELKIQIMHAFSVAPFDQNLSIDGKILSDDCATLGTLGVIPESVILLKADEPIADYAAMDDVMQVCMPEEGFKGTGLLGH

[2] = biological target: DUBs and other proteins in HEK293 cells (Homo sapiens, UniProt Q93009); conditions: replicates A-C; for Log2 reporter intensity values: USP7: competition with ABP 2, DMSO substract (FC); for Log2 reporter intensity values: USP7, DMSO subtracted
Chain of DUBs and other proteins in HEK293 cells (Homo sapiens, UniProt Q93009) (Q93009 whole entry): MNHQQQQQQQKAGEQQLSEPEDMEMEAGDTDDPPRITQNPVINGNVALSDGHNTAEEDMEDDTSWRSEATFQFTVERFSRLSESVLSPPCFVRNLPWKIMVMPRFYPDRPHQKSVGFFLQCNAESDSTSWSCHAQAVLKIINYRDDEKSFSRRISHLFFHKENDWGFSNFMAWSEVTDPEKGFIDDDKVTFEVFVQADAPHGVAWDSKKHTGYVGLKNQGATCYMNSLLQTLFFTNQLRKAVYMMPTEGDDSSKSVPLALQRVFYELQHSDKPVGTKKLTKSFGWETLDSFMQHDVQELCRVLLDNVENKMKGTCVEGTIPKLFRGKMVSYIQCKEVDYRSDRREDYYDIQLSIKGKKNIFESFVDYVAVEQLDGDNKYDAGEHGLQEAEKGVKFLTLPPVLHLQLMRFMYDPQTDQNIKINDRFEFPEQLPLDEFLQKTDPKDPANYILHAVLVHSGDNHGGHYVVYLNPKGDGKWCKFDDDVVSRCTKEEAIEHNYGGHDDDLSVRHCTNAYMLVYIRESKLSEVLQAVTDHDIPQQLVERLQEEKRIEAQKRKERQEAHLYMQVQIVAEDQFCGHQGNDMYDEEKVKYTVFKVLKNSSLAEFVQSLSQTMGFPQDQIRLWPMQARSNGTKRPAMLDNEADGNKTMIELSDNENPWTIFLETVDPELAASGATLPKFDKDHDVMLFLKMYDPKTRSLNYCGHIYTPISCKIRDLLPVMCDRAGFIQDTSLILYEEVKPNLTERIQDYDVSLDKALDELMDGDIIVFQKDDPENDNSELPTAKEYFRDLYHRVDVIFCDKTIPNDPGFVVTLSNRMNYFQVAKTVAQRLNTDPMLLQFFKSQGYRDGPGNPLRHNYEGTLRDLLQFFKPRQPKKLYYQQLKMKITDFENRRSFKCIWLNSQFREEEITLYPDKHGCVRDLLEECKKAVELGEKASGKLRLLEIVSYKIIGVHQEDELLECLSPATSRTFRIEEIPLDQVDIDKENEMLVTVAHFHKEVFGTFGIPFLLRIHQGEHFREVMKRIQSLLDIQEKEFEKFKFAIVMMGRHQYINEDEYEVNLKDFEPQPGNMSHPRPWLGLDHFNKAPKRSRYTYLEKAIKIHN

[3] = biological target: DUBs and other proteins in HEK293 cells (Homo sapiens, UniProt Q6P2Q9); conditions: replicates A-C; for Log2 reporter intensity values: PRPF8: competition with ABP 2, DMSO substract (FC); for Log2 reporter intensity values: PRPF8, DMSO subtracted
[4] = biological target: DUBs and other proteins in HEK293 cells (Homo sapiens, UniProt Q14694); conditions: replicates A-C; for Log2 reporter intensity values: USP10: competition with ABP 2, DMSO substract (FC); for Log2 reporter intensity values: USP10, DMSO subtracted
Chain of DUBs and other proteins in HEK293 cells (Homo sapiens, UniProt Q14694) (Q14694 whole entry): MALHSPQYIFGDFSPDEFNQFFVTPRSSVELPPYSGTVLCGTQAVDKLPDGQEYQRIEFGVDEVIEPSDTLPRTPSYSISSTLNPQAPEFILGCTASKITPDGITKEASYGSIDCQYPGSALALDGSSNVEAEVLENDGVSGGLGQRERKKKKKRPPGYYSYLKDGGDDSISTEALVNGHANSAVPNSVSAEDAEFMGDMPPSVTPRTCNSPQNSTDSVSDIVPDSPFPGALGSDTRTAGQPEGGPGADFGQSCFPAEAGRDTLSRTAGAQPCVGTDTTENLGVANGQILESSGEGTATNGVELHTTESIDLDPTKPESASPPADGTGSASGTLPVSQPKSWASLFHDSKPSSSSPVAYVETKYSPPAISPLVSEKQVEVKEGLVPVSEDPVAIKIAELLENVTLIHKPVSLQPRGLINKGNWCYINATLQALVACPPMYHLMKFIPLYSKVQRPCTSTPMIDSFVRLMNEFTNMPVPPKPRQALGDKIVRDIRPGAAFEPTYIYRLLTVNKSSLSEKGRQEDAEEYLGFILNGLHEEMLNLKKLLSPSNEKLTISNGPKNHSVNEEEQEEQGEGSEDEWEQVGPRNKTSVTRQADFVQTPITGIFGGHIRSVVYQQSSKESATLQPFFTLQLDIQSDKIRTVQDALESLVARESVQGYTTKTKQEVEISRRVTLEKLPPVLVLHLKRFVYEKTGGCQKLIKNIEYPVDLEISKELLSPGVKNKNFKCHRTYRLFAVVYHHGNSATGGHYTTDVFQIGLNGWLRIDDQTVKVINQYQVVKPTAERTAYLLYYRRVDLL

[5] = biological target: DUBs and other proteins in HEK293 cells (Homo sapiens, UniProt Q96FW1); conditions: replicates A-C; for Log2 reporter intensity values: OTUB1: competition with ABP 2, DMSO substract (FC); for Log2 reporter intensity values: OTUB1, DMSO subtracted
Chain of DUBs and other proteins in HEK293 cells (Homo sapiens, UniProt Q96FW1) (Q96FW1 whole entry): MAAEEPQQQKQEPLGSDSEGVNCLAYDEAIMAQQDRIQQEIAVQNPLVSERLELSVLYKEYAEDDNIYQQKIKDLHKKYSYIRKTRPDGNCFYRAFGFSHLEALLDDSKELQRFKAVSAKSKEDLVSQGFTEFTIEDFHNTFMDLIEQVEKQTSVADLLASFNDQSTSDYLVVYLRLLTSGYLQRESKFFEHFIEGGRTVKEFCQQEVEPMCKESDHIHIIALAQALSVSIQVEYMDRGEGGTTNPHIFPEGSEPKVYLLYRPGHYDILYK

[6] = biological target: DUBs and other proteins in HEK293 cells (Homo sapiens, UniProt O00303); conditions: for Log2 reporter intensity values, EIF3F: TMT replicates; for Log2 reporter intensity values: EIF3F: competition with ABP 2, DMSO substract (FC); for Log2 reporter intensity values: EIF3F / Log2 reporter intensity values: replicates A-C; for Log2 t-test Difference / Log2 reporter intensity values: EIF3F
Chain of DUBs and other proteins in HEK293 cells (Homo sapiens, UniProt O00303) (O00303 whole entry): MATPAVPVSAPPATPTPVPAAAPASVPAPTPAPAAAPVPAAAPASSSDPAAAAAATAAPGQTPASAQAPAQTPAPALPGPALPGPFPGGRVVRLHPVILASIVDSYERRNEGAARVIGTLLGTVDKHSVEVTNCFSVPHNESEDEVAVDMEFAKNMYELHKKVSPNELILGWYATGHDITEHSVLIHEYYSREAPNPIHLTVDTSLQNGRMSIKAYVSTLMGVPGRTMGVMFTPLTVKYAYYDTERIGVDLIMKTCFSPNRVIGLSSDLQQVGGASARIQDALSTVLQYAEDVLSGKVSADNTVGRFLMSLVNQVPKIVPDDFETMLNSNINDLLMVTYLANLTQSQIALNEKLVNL

[7] = biological target: DUBs and other proteins in HEK293 cells (Homo sapiens, UniProt O00487); conditions: replicates A-C; for Log2 reporter intensity values: PSMD14: competition with ABP 2, DMSO substract (FC); for Log2 reporter intensity values: PSMD14, DMSO subtracted
Chain of DUBs and other proteins in HEK293 cells (Homo sapiens, UniProt O00487) (O00487 whole entry): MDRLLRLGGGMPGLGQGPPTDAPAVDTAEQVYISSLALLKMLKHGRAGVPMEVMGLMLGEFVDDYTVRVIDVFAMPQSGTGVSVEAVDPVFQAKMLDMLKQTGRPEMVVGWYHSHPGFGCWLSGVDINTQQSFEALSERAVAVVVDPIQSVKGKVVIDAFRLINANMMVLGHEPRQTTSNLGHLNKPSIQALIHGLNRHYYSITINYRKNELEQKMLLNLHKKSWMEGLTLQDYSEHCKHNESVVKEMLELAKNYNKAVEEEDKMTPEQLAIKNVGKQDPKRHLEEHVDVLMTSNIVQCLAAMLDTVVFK

- Log2 reporter intensity values: USP48 ([1]; 3 at 1 μM): 1.063 and 0.8844
- Log2 reporter intensity values: USP48 ([1]; 3 at 4 μM): 0.8635 and 1.157
- Log2 reporter intensity values ([1]; 3_1 μM, replicates A-B (C NaN)): 0.06169 and -0.1169
- Log2 reporter intensity values ([1]; 3_4 μM, replicates A-B (C NaN)): -0.1378 and 0.156
- Log2 reporter intensity values ([1]; 3 at 1 μM, replicates A-C): 0.08809 and -0.1773
- Log2 reporter intensity values ([1]; 3 at 4 μM, replicates A-C): -0.2118 and 0.2108
- Log2 reporter intensity values: USP7 ([2]; 3 at 1 μM): 1.005 and 1.034 and 1.047
- Log2 reporter intensity values: USP7 ([2]; 3 at 4 μM): 0.9485 and 1.006 and 0.9977
- Log2 reporter intensity values ([2]; 3_1 μM): 0.004952 and 0.03394 and 0.04709
- Log2 reporter intensity values ([2]; 3_4 μM): -0.05181 and 0.006115 and -0.002591
- Log2 reporter intensity values ([2]; 3 at 1 μM): 0.007531 and 0.04854 and 0.06677
- Log2 reporter intensity values ([2]; 3 at 4 μM): -0.07633 and 0.0092 and -0.003335
- Log2 reporter intensity values: PRPF8 ([3]; 3 at 1 μM): 0.9503 and 0.8885 and 0.9546
- Log2 reporter intensity values: PRPF8 ([3]; 3 at 4 μM): 0.9411 and 0.9829 and 0.9624
- Log2 reporter intensity values ([3]; 3_1 μM): -0.0499 and -0.1118 and -0.04563
- Log2 reporter intensity values ([3]; 3_4 μM): -0.05909 and -0.0173 and -0.03782
- Log2 reporter intensity values ([3]; 3 at 1 μM): -0.07348 and -0.1706 and -0.06701
- Log2 reporter intensity values ([3]; 3 at 4 μM): -0.08751 and -0.02483 and -0.05526
- Log2 reporter intensity values: USP10 ([4]; 3 at 1 μM): 0.9243 and 0.9306 and 0.9846
- Log2 reporter intensity values: USP10 ([4]; 3 at 4 μM): 0.9265 and 0.935 and 0.9597
- Log2 reporter intensity values ([4]; 3_1 μM): -0.07662 and -0.07034 and -0.01633
- Log2 reporter intensity values ([4]; 3_4 μM): -0.07444 and -0.066 and -0.04125
- Log2 reporter intensity values ([4]; 3 at 1 μM): -0.1135 and -0.1037 and -0.02233
- Log2 reporter intensity values ([4]; 3 at 4 μM): -0.1101 and -0.09701 and -0.05932
- Log2 reporter intensity values: OTUB1 ([5]; 3 at 1 μM): 0.9728 and 1.005 and 0.986
- Log2 reporter intensity values: OTUB1 ([5]; 3 at 4 μM): 1.016 and 1.059 and 1.053
- Log2 reporter intensity values ([5]; 3_1 μM): -0.02736 and 0.004799 and -0.01417
- Log2 reporter intensity values ([5]; 3_4 μM): 0.01602 and 0.05888 and 0.05243
- Log2 reporter intensity values ([5]; 3 at 1 μM): -0.03984 and 0.007079 and -0.02041
- Log2 reporter intensity values ([5]; 3 at 4 μM): 0.0231 and 0.08271 and 0.07389
- Log2 reporter intensity values, EIF3F ([6]; 1 μM 3 (60 min) + 20 nM ABP 2 (10 min), All values): 0.01809 and -0.02026 and 0.07981
- Log2 reporter intensity values, EIF3F ([6]; 1 μM 3 (60 min) + 20 nM ABP 2 (10 min), DMSO subtracted): 0.02764 and -0.01071 and 0.08936
- Log2 reporter intensity values, EIF3F ([6]; 4 μM 3 (60 min) + 20 nM ABP 2 (10 min), All values): -0.1978 and 0.02104 and -0.01378
- Log2 reporter intensity values, EIF3F ([6]; 4 μM 3 (60 min) + 20 nM ABP 2 (10 min), DMSO subtracted): -0.1882 and 0.03059 and -0.004226
- Log2 reporter intensity values: EIF3F ([6]; 3 at 1 μM): 1.019 and 0.9926 and 1.064
- Log2 reporter intensity values: EIF3F ([6]; 3 at 4 μM): 0.8777 and 1.021 and 0.9971
- Log2 t-test Difference ([6]; 3 - 1 μM): -0.05527
- Log2 t-test Difference ([6]; 3 - 4 μM): -0.1447
- Log2 reporter intensity values ([6]; 3_1 μM, DMSO subtracted): 0.01893 and -0.007817 and 0.06348
- Log2 reporter intensity values ([6]; 3_4 μM, DMSO subtracted): -0.1227 and 0.02101 and -0.003343
- Log2 reporter intensity values ([6]; 3 at 1 μM, DMSO subtracted): 0.02764 and -0.01071 and 0.08936
- Log2 reporter intensity values ([6]; 3 at 4 μM, DMSO subtracted): -0.1882 and 0.03059 and -0.004226
- Log2 reporter intensity values: PSMD14 ([7]; 3 at 1 μM): 1.063 and 1.033 and 1.055
- Log2 reporter intensity values: PSMD14 ([7]; 3 at 4 μM): 1.048 and 1.127 and 1.122
- Log2 reporter intensity values ([7]; 3_1 μM): 0.06036 and 0.03045 and 0.0523
- Log2 reporter intensity values ([7]; 3_4 μM): 0.04582 and 0.1244 and 0.1197
- Log2 reporter intensity values ([7]; 3 at 1 μM): 0.08818 and 0.04699 and 0.07719
- Log2 reporter intensity values ([7]; 3 at 4 μM): 0.06829 and 0.1725 and 0.1665
SMILES: N#CN1CCC[C@@H]1C(=O)N1CCc2c(-c3c[nH]c4ncccc34)cccc21 [Compound 3]

Source: PMC7366380, “Discovery of a Potent and Selective Covalent Inhibitor and Activity-Based Probe for the Deubiquitylating Enzyme UCHL1, with Antifibrotic Activity” (Journal of the American Chemical Society, 2020)
